Drawing on ChEMBL document CHEMBL1201862, “PubChem BioAssay data set” (2004), this text covers IC50 for 4 molecules.

Active and inactive are the calls of the source.

For one experiment, the target named is Phospholipase A2 (Homo sapiens, UniProt P04054). Format: functional.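 Also: confirmatory dose-response counterscreen on phospholipase A2, testing hits that came from an ultra-high-throughput screen for ATG4B inhibitors.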
In a further experiment the target is T1, Exodeoxyribonuclease V (Escherichia coli (strain K12), UniProt P04993+P07648+P08394).
T1 sequence (P04993 whole entry): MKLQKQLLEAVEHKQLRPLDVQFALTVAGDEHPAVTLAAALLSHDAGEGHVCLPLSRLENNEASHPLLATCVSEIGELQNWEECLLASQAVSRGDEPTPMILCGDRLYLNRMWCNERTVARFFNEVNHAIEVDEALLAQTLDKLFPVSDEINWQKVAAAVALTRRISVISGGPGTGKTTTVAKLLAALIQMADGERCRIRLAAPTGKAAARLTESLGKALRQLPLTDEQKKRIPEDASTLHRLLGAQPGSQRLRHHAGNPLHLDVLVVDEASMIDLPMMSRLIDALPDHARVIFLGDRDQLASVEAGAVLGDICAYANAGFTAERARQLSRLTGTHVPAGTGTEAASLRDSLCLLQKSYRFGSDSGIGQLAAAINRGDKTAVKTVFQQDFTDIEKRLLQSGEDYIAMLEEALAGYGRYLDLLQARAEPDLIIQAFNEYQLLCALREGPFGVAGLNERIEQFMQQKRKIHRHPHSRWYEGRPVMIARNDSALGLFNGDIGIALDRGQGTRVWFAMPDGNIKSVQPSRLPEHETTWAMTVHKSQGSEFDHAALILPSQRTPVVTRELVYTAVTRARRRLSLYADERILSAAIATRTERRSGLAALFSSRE
T1 sequence (P07648 whole entry): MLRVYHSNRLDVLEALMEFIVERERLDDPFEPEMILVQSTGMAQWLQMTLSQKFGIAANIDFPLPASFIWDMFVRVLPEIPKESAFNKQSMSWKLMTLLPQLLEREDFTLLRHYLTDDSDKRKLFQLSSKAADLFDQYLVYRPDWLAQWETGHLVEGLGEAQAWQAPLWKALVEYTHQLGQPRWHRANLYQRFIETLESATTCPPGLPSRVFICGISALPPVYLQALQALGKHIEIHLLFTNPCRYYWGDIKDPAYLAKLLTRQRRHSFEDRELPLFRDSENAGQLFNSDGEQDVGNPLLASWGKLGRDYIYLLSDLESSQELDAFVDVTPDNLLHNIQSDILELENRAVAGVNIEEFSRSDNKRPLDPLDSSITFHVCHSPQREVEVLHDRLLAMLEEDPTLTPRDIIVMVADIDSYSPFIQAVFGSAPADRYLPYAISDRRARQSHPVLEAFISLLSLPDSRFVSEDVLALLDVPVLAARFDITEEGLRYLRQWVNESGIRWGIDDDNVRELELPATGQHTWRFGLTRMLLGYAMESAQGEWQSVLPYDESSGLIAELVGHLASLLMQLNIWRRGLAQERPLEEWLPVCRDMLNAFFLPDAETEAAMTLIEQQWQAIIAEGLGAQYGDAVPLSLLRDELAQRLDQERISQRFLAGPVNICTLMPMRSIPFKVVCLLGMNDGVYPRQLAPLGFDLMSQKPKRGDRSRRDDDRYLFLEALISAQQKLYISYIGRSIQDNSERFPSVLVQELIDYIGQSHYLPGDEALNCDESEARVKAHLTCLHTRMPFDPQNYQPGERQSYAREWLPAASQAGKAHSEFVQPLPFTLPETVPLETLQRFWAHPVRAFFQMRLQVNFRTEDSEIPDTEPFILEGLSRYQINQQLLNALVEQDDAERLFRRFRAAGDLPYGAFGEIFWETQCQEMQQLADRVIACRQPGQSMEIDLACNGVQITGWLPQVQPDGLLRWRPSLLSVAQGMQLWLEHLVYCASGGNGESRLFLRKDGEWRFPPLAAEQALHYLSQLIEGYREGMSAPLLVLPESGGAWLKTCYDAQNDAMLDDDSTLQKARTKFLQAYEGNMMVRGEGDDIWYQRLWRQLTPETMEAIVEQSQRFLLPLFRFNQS
T1 sequence (P08394 whole entry): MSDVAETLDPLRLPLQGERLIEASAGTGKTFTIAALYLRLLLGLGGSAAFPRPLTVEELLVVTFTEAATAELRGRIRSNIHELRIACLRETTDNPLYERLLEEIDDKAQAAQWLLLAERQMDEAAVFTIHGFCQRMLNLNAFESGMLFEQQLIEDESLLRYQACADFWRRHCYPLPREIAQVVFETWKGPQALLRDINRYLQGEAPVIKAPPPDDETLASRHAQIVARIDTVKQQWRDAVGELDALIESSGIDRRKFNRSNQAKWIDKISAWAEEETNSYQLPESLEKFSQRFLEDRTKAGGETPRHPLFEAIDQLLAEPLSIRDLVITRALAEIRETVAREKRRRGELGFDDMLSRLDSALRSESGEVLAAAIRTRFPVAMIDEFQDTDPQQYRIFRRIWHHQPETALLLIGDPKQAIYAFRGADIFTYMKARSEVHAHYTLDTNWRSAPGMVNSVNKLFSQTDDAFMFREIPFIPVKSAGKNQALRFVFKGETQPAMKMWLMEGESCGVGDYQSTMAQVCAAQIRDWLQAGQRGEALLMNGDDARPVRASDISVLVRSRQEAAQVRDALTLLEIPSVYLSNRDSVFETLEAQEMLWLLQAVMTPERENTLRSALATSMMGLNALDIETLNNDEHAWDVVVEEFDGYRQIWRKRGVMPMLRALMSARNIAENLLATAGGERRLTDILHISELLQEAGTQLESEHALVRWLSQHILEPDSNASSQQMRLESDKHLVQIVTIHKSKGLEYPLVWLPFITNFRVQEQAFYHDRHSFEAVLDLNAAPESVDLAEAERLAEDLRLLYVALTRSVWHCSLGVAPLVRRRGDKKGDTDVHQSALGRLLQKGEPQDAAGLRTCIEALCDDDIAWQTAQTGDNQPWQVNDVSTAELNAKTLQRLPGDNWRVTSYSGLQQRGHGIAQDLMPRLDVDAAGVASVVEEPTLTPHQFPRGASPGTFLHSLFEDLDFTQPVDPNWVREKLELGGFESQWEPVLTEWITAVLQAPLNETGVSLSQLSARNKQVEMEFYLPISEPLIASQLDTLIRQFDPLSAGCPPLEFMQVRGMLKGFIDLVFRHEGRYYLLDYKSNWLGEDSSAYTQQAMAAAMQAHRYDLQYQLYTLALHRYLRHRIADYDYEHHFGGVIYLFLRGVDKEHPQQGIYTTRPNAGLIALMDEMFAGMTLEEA
In words: RecBCD inhibition via phage-restricted bacterial growth – absorbance, V66 E. coli, mutant T4 phage, counter-screen for AddAB inhibitor project, dose response (AID 492957). Type of experiment: functional, cell-based, Escherichia coli str. K-12 substr. MG1655. For orientation: A counterscreen serves to expose hits that act by an unwanted route or on another target.

Phospholipase A2, sequence (P04054 whole entry): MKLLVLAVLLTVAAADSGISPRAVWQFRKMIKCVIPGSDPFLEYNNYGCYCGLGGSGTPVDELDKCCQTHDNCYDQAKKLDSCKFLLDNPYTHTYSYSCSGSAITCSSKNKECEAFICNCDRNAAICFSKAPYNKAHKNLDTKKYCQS

Turning to `O=C(O)c1ccc(NC2=C/C(=N/S(=O)(=O)c3ccccc3)c3ccccc3C2=O)cc1`, the IC50 on Phospholipase A2 was 34.7 µM (inactive). For the molecule `Nc1ccc2c(c1)C(=O)C(=O)c1ccccc1-2`, the IC50 on Phospholipase A2 is 48.8 µM (inactive). As for `Cc1ccc2nc(/C(C#N)=C\c3ccc([N+](=O)[O-])o3)[nH]c2c1`, the IC50 on Exodeoxyribonuclease V is > 119 µM (inactive).

Take `CCCC(=O)NC(c1ccccc1OC)c1ccc2cccnc2c1O` (centres undefined): the IC50 at Exodeoxyribonuclease V is > 119 µM (inactive).

By IC50 is commonly meant the point on the concentration scale where inhibition reaches its midpoint.
